Measurements reported in patent US5242902A, “Defensin peptide compositions and methods for their use” (The Regents of the University of California, priority 1989, dated 1993).

What was measured:
[1] = system: capsaicin-treated corneas; format: in vivo
Description: Capsaicin-treated corneas from adult rabbits were used to determine the effects of topically applied defensins on corneal re-epithelialization. Capsaicin depletes neuropeptides which have an effect on wound healing (data not shown). The rabbits received 0.4 ml of lidocaine diluted in 2.6 ml of sterile saline delivered subcutaneously between the cranial aspect of the interscapular space. After 10 minutes, 50 mg/kg of capsaicin (100 mg/ml) was delivered through a 11/2 inch 25 gauge needle. Repeat injections of capsaicin was given once a day for four additional days. Three weeks from the last injection bilateral corneal defects were created as described below and the eyes treated topically with test solutions. The cornea was treated with two drops of test solution after creation of the epithelial defect. Upon completion of surgery, the rabbit was returned to its cage onto a warm heating pad. Sequential corneal photographs were taken after installation of fluoroscein and the rate of epithelial wound healing determined.
The effects of topically applied HNP-1 on the epithelial wound healing of neuropeptide depleted rabbit corneas was investigated. Corneas of rabbits treated systemically with capsaicin have impaired epithelial healing. In this model, capsaicin (50 mg/kg) was injected subcutaneously for 5 consecutive days into New Zealand white rabbits. Lidocaine was delivered subcutaneously into the capsaicin injection site 10 minutes prior to the first injection. Three weeks after the injections, the animals were anesthetized (ketamine/xylazine), topical anesthetic applied to the cornea, and the epithelium debrided circumferentially to the limbal margin of clear cornea. Absolute alcohol on microcellulose sponges and a dull #15 Bard Parker blade were used to remove the epithelium. Care was taken that no alcohol ran over the clear corneal edge to damage the limbal epithelium. The corneas were stained with fluorescein and photographed twice daily to monitor re-epithelialization. […]

[2] = system: panel of organisms in stationary growth phase; conditions: cited from earlier work
[3] = system: Nakano mouse lens epithelial cells; assay: In vitro cell growth assay (3H-thymidine incorporation, cell counts), serum free; format: cell-based
Description: (§1) Cell growth assays were performed as previously described in Reid et al., (1987), J. Biol. Chem. 262:229-233. Briefly, cells were grown to confluence in 96-well plates in media plus serum and arrested in G0/G1 by either serum starvation for 2-days (epithelial cells) or 8-10 day serum depletion followed by serum starvation for 1-day (fibroblasts). At this point the media was removed and new media with the desired factors was added. Approximately 16 hours later ^3 -thymidine was added and 20 to 28 hours later the cells were washed, lysed and the amount of ^3 H-thymidine incorporated into DNA was measured. In some cases, actual cell counts were performed.
(§2) The growth stimulatory properties of human defensins HNP-1, HNP-2, HNP-3 and rabbit defensins NP-1 and NP-5 in a serum free growth assay system were tested. SIRC rabbit corneal epithelial cells, Nakano mouse lens epithelial cells, and NIH 3T3 fibroblasts were utilized in these studies.

NIH 3T3 fibroblasts = assay: In vitro cell growth assay (3H-thymidine incorporation), serum free; format: cell-based
Description: as §1, §2

[4] = system: SIRC rabbit corneal epithelial cells; assay: as above; format: cell-based
Description: as §1, §2

Substance | time to re-epithelialization of treated eye ([1]; 100 μg/ml topical 4 times a day, control eye healed at 6.5 days) [days] | re-epithelialization of treated versus fellow control eye ([1]; 100 μg/ml topical, one rabbit) | effect on the cornea or conjunctiva (tolerability) ([1]; topical, 4 times a day, 40 or 100 μg/ml in sterile water, four rabbits) | relative antimicrobial potency among defensins [2] | growth promoting response with bovine serum albumin ([3]; 5 mg/ml BSA added at varying times after stimulation (FIGS. 7 and 8), preliminary) | suppression at higher concentrations (NIH 3T3 fibroblasts; 3T3 fibroblast cells, higher concentrations) | stimulatory properties (DNA synthesis) (NIH 3T3 fibroblasts; 3T3 fibroblasts, presence and absence of insulin (FIG. 10)) | stimulatory properties (DNA synthesis) ([4]; corneal epithelial cells (FIG. 9)) | effect at higher concentrations ([4]; corneal epithelial cells, higher concentrations) | actual cell number ([3]; cell counts (FIG. 6)) | stimulatory effect on cell number compared with insulin and EGF ([3]; insulin and EGF at concentrations which elicit maximal response (FIG. 6))
HNP-1: human neutrophil defensin peptide isolated from PMN; sequence in Table 1 | 5.5 | both corneas re-epithelialized simultaneously | no deleterious effect on the cornea or conjunctiva | most potent antimicrobial properties | response curve is shifted to the right and that the plateau phase is extended | not observed | stimulatory | stimulatory | suppression observed at higher concentrations |  | 
HNP-3: human neutrophil defensin peptide; sequence in Table 1 |  |  |  |  |  |  |  |  |  | increase in actual cell number | surpassed that of insulin and EGF
